Here are results for eight compounds from ChEMBL document CHEMBL1201862, “PubChem BioAssay data set” (2004).

Among the test systems are CAKI-1; RXF 393; OVCAR-4; K562; MOLT-4; SR; NCI-H23; SF-295; SNB-19; IGROV-1; NCI-H226; HT-29; SK-MEL-5; OVCAR-3; SK-MEL-28; HCT-116; OVCAR-8; 786-0; CCRF-CEM; HL-60.
Holding throughout (assay): inhibition of tumour cell growth, NCI panel, 48 h

The structures appear in SMILES notation.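 Results reflect a 48-hour exposure of cells in 96-well plates to compound at five concentrations. GI50 is the concentration that inhibits growth by half.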 Activity calls are given as the source filed them. No stated cut-off is given here; in the data, active = GI50 up to about 1.1 µM and inactive = higher. Bounds are passed on as bounds.

In the case of `FC(F)(F)c1cccnc1Sc1nc2ccccc2s1`, the GI50 with CAKI-1 is > 100 µM (inactive); with RXF 393, > 100 µM (inactive); in the assay on OVCAR-4, > 100 µM (inactive); in the assay with K562, > 100 µM (inactive); with MOLT-4, 52.1 µM (inactive); with SR it was 30.9 µM (inactive). For the same compound, the GI50 in the assay with NCI-H23 was 80.4 µM (inactive); with SF-295, 63 µM (inactive); with SNB-19, > 100 µM (inactive); in the assay with IGROV-1, 42.4 µM (inactive); with NCI-H226 it was 2.67 µM (inactive); with HT-29 it was > 100 µM (inactive). Moreover, the GI50 in the assay on SK-MEL-5 was > 100 µM (inactive); with OVCAR-3, 11.3 µM (inactive); with SK-MEL-28, > 100 µM (inactive); in the assay with HCT-116, > 100 µM (inactive); with OVCAR-8, > 100 µM (inactive); in the assay with 786-0, > 100 µM (inactive). The GI50 in the assay with CCRF-CEM is > 100 µM (inactive).

Take `CCN(CC)CCC(=O)OC1C(C)=CC(C)C(=O)CC(C(C)CC2CCC(O)C(OC)C2)OC(=O)C2CCCCN2C(=O)C(=O)[C@@]2(O)OC(CCC2C)CC(OC)\C(C)=C/C=C/C=C/C(C)CC(C)C(=O)C1OC` (stereo not given in full): the GI50 is 0.975 µM (active) with CAKI-1; < 0.01 µM (active) with RXF 393; < 0.01 µM (active) in the assay with OVCAR-4; < 0.0183 µM (active) with K562; 1.96 µM (inactive) in the assay with HL-60; < 0.01 µM (active) with SR. Further, the GI50 was 11.7 µM (inactive) in the assay with NCI-H23; < 0.01 µM (active) in the assay on SF-295; 4.34 µM (inactive) in the assay with SNB-19; < 0.01 µM (active) with IGROV-1; 12.9 µM (inactive) with NCI-H226; 1.91 µM (inactive) in the assay on HT-29. The GI50 was 11.2 µM (inactive) in the assay on OVCAR-3, 0.0791 µM (active) in the assay on SK-MEL-28, 5.89 µM (inactive) in the assay with HCT-116 and 7.91 µM (inactive) in the assay on 786-0.

For the compound `Cc1nc2c(o1)C(=O)c1ccccc1/C2=N/c1ccccn1`, the GI50 is 25.8 µM (inactive) in the assay on CAKI-1; > 100 µM (inactive) in the assay on RXF 393; 15 µM (inactive) in the assay on OVCAR-4; 29.8 µM (inactive) in the assay on K562; 15.5 µM (inactive) in the assay on HL-60; 17.7 µM (inactive) in the assay on MOLT-4. Moreover, the GI50 is 24.1 µM (inactive) in the assay with SR; 11.5 µM (inactive) in the assay with NCI-H23; > 100 µM (inactive) in the assay with SF-295; 14.8 µM (inactive) with SNB-19; 22.6 µM (inactive) in the assay on IGROV-1; 18.8 µM (inactive) in the assay on HT-29. Besides, the GI50 in the assay with SK-MEL-5 is 16.7 µM (inactive); in the assay on OVCAR-3, 4.66 µM (inactive); with SK-MEL-28, 18.8 µM (inactive); in the assay with HCT-116, 20.4 µM (inactive); in the assay on OVCAR-8 it was 15.4 µM (inactive); in the assay on 786-0, 25.6 µM (inactive). For the same compound, in the assay with CCRF-CEM, the GI50 is 18.5 µM (inactive).

Regarding `CCN(CC)CCn1c2cc3c(cc2c(=O)c2cccnc21)OCCO3`, the GI50 in the assay on CAKI-1 was > 10 µM (inactive); in the assay on RXF 393 it was > 10 µM (inactive); in the assay on OVCAR-4, > 10 µM (inactive); with HL-60 it was > 10 µM (inactive); in the assay with MOLT-4 it was 3.78 µM (inactive); in the assay on SR it was 4.44 µM (inactive). Also, the GI50 with NCI-H23, in the assay with SF-295, in the assay with SNB-19, in the assay on IGROV-1, with HT-29 and in the assay on SK-MEL-5 was > 10 µM (inactive) each time. The GI50 was > 10 µM (inactive) in the assay with OVCAR-3; > 10 µM (inactive) with SK-MEL-28; 4.72 µM (inactive) in the assay on HCT-116; > 10 µM (inactive) in the assay with OVCAR-8; > 10 µM (inactive) in the assay on 786-0; 5.46 µM (inactive) in the assay on CCRF-CEM.

Turning to `COC(=O)n1c(C)c(C=O)c2ccc(OC)cc21`, the GI50 with CAKI-1 is 38.9 µM (inactive); in the assay on RXF 393, 30.6 µM (inactive); in the assay on OVCAR-4, > 100 µM (inactive); in the assay with K562, 38 µM (inactive); in the assay with HL-60, 31.3 µM (inactive); with MOLT-4, 42.2 µM (inactive). The GI50 was 34.5 µM (inactive) in the assay on SR; 28.6 µM (inactive) in the assay with NCI-H23; 24.9 µM (inactive) in the assay on SF-295; 42.7 µM (inactive) with SNB-19; 38.6 µM (inactive) in the assay with IGROV-1; 33.3 µM (inactive) in the assay on HT-29. Also, the GI50 was 21.6 µM (inactive) in the assay on SK-MEL-5; 59.6 µM (inactive) with OVCAR-3; 34.8 µM (inactive) in the assay with HCT-116; 81.7 µM (inactive) with OVCAR-8; 36 µM (inactive) in the assay on 786-0; 32.4 µM (inactive) in the assay with CCRF-CEM.

Turning to `OCCN(CCO)c1cccc(N(CCO)CCO)c1`, the GI50 in the assay with CAKI-1, in the assay on RXF 393, with OVCAR-4, in the assay on K562, with HL-60 and with MOLT-4 was > 100 µM (inactive) throughout. The GI50 in the assay on SR was > 100 µM (inactive); in the assay with NCI-H23, > 100 µM (inactive); in the assay on SF-295 it was > 100 µM (inactive); in the assay with SNB-19, 39.2 µM (inactive); in the assay on SK-MEL-5, > 100 µM (inactive); in the assay with OVCAR-3, > 100 µM (inactive). The GI50 with SK-MEL-28, in the assay with HCT-116, in the assay with OVCAR-8, in the assay on 786-0 and with CCRF-CEM was > 100 µM (inactive) each time.

Consider `O=c1c2ccccc2c(=O)n2n1-c1cccc(c1)CSSCc1cccc-2c1`, for which the GI50 in the assay with CAKI-1 was > 10 µM (inactive); with RXF 393, > 100 µM (inactive); in the assay on OVCAR-4, > 10 µM (inactive); with K562 it was > 10 µM (inactive); with MOLT-4 it was > 10 µM (inactive); in the assay with SR it was > 10 µM (inactive). In addition, the GI50 with NCI-H23 was > 10 µM (inactive); in the assay on SF-295 it was 43.4 µM (inactive); in the assay with SNB-19, > 10 µM (inactive); with IGROV-1 it was > 10 µM (inactive); in the assay on NCI-H226 it was > 10 µM (inactive); in the assay with HT-29, > 10 µM (inactive). In addition, the GI50 is > 10 µM (inactive) in the assay with SK-MEL-5; > 10 µM (inactive) with OVCAR-3; > 10 µM (inactive) in the assay on SK-MEL-28; > 10 µM (inactive) in the assay with HCT-116; > 10 µM (inactive) in the assay with OVCAR-8; 58.3 µM (inactive) in the assay on 786-0. In addition, the GI50 with CCRF-CEM was > 10 µM (inactive).

Take `COc1ccc(/[N+]([O-])=C/c2ccccc2OC(=S)S)cc1`: the GI50 in the assay with CAKI-1 is 33.7 µM (inactive); in the assay on RXF 393, 52 µM (inactive); in the assay with OVCAR-4, 28.4 µM (inactive); in the assay with K562, 37.4 µM (inactive); in the assay with HL-60, 24.3 µM (inactive); in the assay on MOLT-4 it was 37.7 µM (inactive). Besides, the GI50 in the assay on SR was 28.4 µM (inactive); in the assay on NCI-H23, 27.7 µM (inactive); in the assay on SF-295, 33.8 µM (inactive); in the assay with SNB-19, 51.3 µM (inactive); with IGROV-1, 27.6 µM (inactive); with NCI-H226, 30.8 µM (inactive). Besides, the GI50 in the assay with HT-29 was 22.4 µM (inactive); in the assay with SK-MEL-5, 30.5 µM (inactive); with OVCAR-3, 28.4 µM (inactive); with SK-MEL-28, 72.8 µM (inactive); in the assay on HCT-116, 25.5 µM (inactive); in the assay on OVCAR-8, 18.7 µM (inactive). The GI50 with 786-0 was 24.9 µM (inactive).
